Measured values reported in PubChem BioAssay AID330 (DTP/NCI, 2004).
“And” between values parts separate entries of the source, which are not always exact repeats. Equal entries are not always repeated. Inconclusive results and toxic doses are left out.

Test system: P388 leukemia ip, CD2F1 mice, survival T/C
Experiment: NCI In Vivo Anticancer Drug Screen. Data for tumor model P388 Leukemia (intraperitoneal) in CD2F1 (CDF1) mice
Settings: endpoint: median survival time, higher = longer survival
Outline: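 Mice carrying the transplanted tumor received test compound or vehicle. Survival was recorded in each group, and the value is the treated-group measurement divided by that of the vehicle-treated control group.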

[1] = dose: 50.0 mg/kg/injection, schedule: Q01DX005 (ip), vehicle: saline with Tween-80
[2] = dose: 100.0 mg/kg/injection, schedule: Q01DX005 (ip), vehicle: saline with Tween-80
[3] = dose: 200.0 mg/kg/injection, schedule: Q01DX005 (ip), vehicle: saline with Tween-80
[4] = dose: 50.0 mg/kg/injection, schedule: Q01DX009 (ip), vehicle: saline with Tween-80
[5] = dose: 100.0 mg/kg/injection, schedule: Q04DX003 (ip), vehicle: saline with Tween-80

CC(C(=O)NN)C(C)(C)C (centres undefined)
T/C (dose: 100.0 mg/kg/injection, schedule: Q01DX001 (ip), vehicle: saline with Tween-80): 96 % of control | T/C (dose: 200.0 mg/kg/injection, schedule: Q01DX001 (ip), vehicle: saline with Tween-80): 99 % of control | T/C (dose: 400.0 mg/kg/injection, schedule: Q01DX001 (ip), vehicle: saline with Tween-80): 99 % of control

CCCCc1ccc(-n2c(C)c(COC(=O)NC)c(COC(=O)NC)c2C)cc1
T/C (dose: 12.5 mg/kg/injection, schedule: Q01DX009 (ip), vehicle: Klucel (hydroxypropylcellulose) (HPC)): 172 % of control and 190 % of control | T/C (dose: 25.0 mg/kg/injection, schedule: Q01DX009 (ip), vehicle: Klucel (hydroxypropylcellulose) (HPC)): 152 % of control and 190 % of control

CC(=O)C1(C(C)=O)C2=C(C(=O)C(Cl)=C(Cl)C2=O)N2C=CC=CC21 (centres undefined)
T/C (dose: 100.0 mg/kg/injection, schedule: Q04DX002 (ip), vehicle: saline): 102 % of control | T/C (dose: 200.0 mg/kg/injection, schedule: Q04DX002 (ip), vehicle: saline): 88 % of control

O=C(NS(=O)(=O)Cl)Oc1ccc(Cl)cc1C(=O)Oc1ccc(Cl)cc1
T/C (dose: 60.0 mg/kg/injection, schedule: Q01DX005 (ip), vehicle: Klucel (hydroxypropylcellulose) (HPC)): 90 % of control | T/C (dose: 120.0 mg/kg/injection, schedule: Q01DX005 (ip), vehicle: Klucel (hydroxypropylcellulose) (HPC)): 93 % of control | T/C (dose: 240.0 mg/kg/injection, schedule: Q01DX005 (ip), vehicle: Klucel (hydroxypropylcellulose) (HPC)): 86 % of control

C=CC12CCC(CC1)n1c(=O)n(C)c(=O)n12
T/C [1]: 99 % of control | T/C [2]: 103 % of control | T/C [3]: 100 % of control

COC(=O)c1ccc2cc1Nc1c(C#N)cnc(=S)n1-2
T/C [4]: 114 % of control | T/C (dose: 100.0 mg/kg/injection, schedule: Q01DX009 (ip), vehicle: saline with Tween-80): 112 % of control | T/C (dose: 200.0 mg/kg/injection, schedule: Q01DX009 (ip), vehicle: saline with Tween-80): 90 % of control

O=C1C(N=Nc2ccc(S(=O)(=O)Nc3ccccn3)cc2)C(=O)N(c2ccc(Cl)cc2)C(=S)N1c1ccc(Cl)cc1
T/C (dose: 50.0 mg/kg/injection, schedule: Q01DX005 (ip), vehicle: saline): 105 % of control | T/C (dose: 100.0 mg/kg/injection, schedule: Q01DX005 (ip), vehicle: saline): 114 % of control | T/C (dose: 200.0 mg/kg/injection, schedule: Q01DX005 (ip), vehicle: saline): 112 % of control

C=CCNc1ncnc2c1cnn2C
T/C (dose: 50.0 mg/kg/injection, schedule: Q04DX003 (ip), vehicle: saline with Tween-80): 104 % of control | T/C [5]: 104 % of control

O=[N+]([O-])c1ccc([S][Sn]([c]2ccccc2)([c]2ccccc2)[c]2ccccc2)cc1
T/C (dose: 50.0 mg/kg/injection, schedule: Q04DX003 (ip), vehicle: saline): 101 % of control and 92 % of control | T/C (dose: 100.0 mg/kg/injection, schedule: Q04DX003 (ip), vehicle: saline): 98 % of control and 104 % of control and 109 % of control | T/C (dose: 200.0 mg/kg/injection, schedule: Q04DX003 (ip), vehicle: saline): 108 % of control and 109 % of control and 110 % of control | T/C (dose: 400.0 mg/kg/injection, schedule: Q04DX003 (ip), vehicle: saline): 101 % of control and 102 % of control and 120 % of control

Nc1ccccc1SCc1csc(-c2ccc(Cl)cc2)n1
T/C (dose: 50.0 mg/kg/injection, schedule: Q01DX009 (ip), vehicle: saline): 103 % of control | T/C (dose: 100.0 mg/kg/injection, schedule: Q01DX009 (ip), vehicle: saline): 114 % of control | T/C (dose: 200.0 mg/kg/injection, schedule: Q01DX009 (ip), vehicle: saline): 109 % of control

Cc1nc2cc(C)[nH]c(=O)n2n1
T/C [1]: 105 % of control | T/C [2]: 107 % of control | T/C [3]: 104 % of control

CC(=O)c1c(O)c(C)c(O)c2c1OC1=CC(=O)/C(=C(/C)N)C(=O)C12C (centres undefined)
T/C (dose: 6.25 mg/kg/injection, schedule: Q01DX009 (ip), vehicle: gum acacia): 107 % of control and 112 % of control | T/C (dose: 12.5 mg/kg/injection, schedule: Q01DX009 (ip), vehicle: gum acacia): 100 % of control and 105 % of control | T/C (dose: 25.0 mg/kg/injection, schedule: Q01DX009 (ip), vehicle: gum acacia): 102 % of control and 109 % of control | T/C (dose: 50.0 mg/kg/injection, schedule: Q01DX009 (ip), vehicle: gum acacia): 100 % of control and 86 % of control | T/C (dose: 100.0 mg/kg/injection, schedule: Q01DX009 (ip), vehicle: gum acacia): 100 % of control and 106 % of control | T/C (dose: 200.0 mg/kg/injection, schedule: Q01DX009 (ip), vehicle: gum acacia): 102 % of control and 110 % of control

O=C(CC(=O)C(F)(F)F)c1cccs1
T/C (dose: 6.25 mg/kg/injection, schedule: Q01DX009 (ip), vehicle: saline with Tween-80): 100 % of control | T/C (dose: 12.5 mg/kg/injection, schedule: Q01DX009 (ip), vehicle: saline with Tween-80): 100 % of control and 104 % of control | T/C (dose: 25.0 mg/kg/injection, schedule: Q01DX009 (ip), vehicle: saline with Tween-80): 103 % of control and 110 % of control | T/C [4]: 100 % of control and 111 % of control and 114 % of control

COc1ccc(-c2ccc(OC)c(OC)c2OC)c(N)c1
T/C [5]: 99 % of control and 110 % of control | T/C (dose: 200.0 mg/kg/injection, schedule: Q04DX003 (ip), vehicle: saline with Tween-80): 104 % of control and 110 % of control | T/C (dose: 400.0 mg/kg/injection, schedule: Q04DX003 (ip), vehicle: saline with Tween-80): 114 % of control and 115 % of control

C1CCC2C(C1)CC[N-]C2CCC1[N-]CCC2CCCCC21.C1CCC2C(C1)CC[N-]C2CCC1[N-]CCC2CCCCC21.[Ni+2].[O-][Cl+3]([O-])([O-])O (centres undefined)
T/C (dose: 25.0 mg/kg/injection, schedule: Q01DX001 (ip), vehicle: saline): 100 % of control | T/C (dose: 50.0 mg/kg/injection, schedule: Q01DX001 (ip), vehicle: saline): 100 % of control and 101 % of control | T/C (dose: 100.0 mg/kg/injection, schedule: Q01DX001 (ip), vehicle: saline): 101 % of control and 108 % of control and 97 % of control | T/C (dose: 200.0 mg/kg/injection, schedule: Q01DX001 (ip), vehicle: saline): 98 % of control and 100 % of control

CC(NNC(=S)N1CC2CCC(CC2)C1)c1nccc2ccccc12 (centres undefined)
T/C (dose: 12.5 mg/kg/injection, schedule: Q01DX005 (ip), vehicle: saline with Tween-80): 110 % of control | T/C (dose: 25.0 mg/kg/injection, schedule: Q01DX005 (ip), vehicle: saline with Tween-80): 103 % of control | T/C [1]: 119 % of control

CC(=O)OC1C(c2ccc(Cl)cc2)CC2CCC1N2C (centres undefined)
T/C [1]: 103 % of control | T/C [2]: 102 % of control

CCCCNC1CC(OC2CC(O)(C(C)=O)Cc3c(O)c4c(c(O)c32)C(=O)c2c(OC)cccc2C4=O)OC(C)C1O (centres undefined)
T/C (dose: 2.0 mg/kg/injection, schedule: Q01DX009 (ip), vehicle: water): 102 % of control | T/C (dose: 4.0 mg/kg/injection, schedule: Q01DX009 (ip), vehicle: water): 100 % of control | T/C (dose: 8.0 mg/kg/injection, schedule: Q01DX009 (ip), vehicle: water): 118 % of control | T/C (dose: 16.0 mg/kg/injection, schedule: Q01DX009 (ip), vehicle: water): 118 % of control

Cc1ccc(/C=C/c2ccc3ccccc3c2)cc1
T/C (dose: 50.0 mg/kg/injection, schedule: Q01DX009 (ip), vehicle: other): 108 % of control | T/C (dose: 100.0 mg/kg/injection, schedule: Q01DX009 (ip), vehicle: other): 98 % of control | T/C (dose: 200.0 mg/kg/injection, schedule: Q01DX009 (ip), vehicle: other): 120 % of control

CCCCN(CCCC)C(=N)/C=C/c1ccccc1
T/C (dose: 6.25 mg/kg/injection, schedule: Q01DX005 (ip), vehicle: Klucel (hydroxypropylcellulose) (HPC)): 97 % of control | T/C (dose: 12.5 mg/kg/injection, schedule: Q01DX005 (ip), vehicle: Klucel (hydroxypropylcellulose) (HPC)): 103 % of control

Cc1ccc2c(c1O)NC(O)c1cccn1C2=O (centres undefined)
T/C (dose: 0.1 mg/kg/injection, schedule: Q01DX005 (ip), vehicle: water): 99 % of control | T/C (dose: 0.2 mg/kg/injection, schedule: Q01DX005 (ip), vehicle: water): 111 % of control | T/C (dose: 0.4 mg/kg/injection, schedule: Q01DX005 (ip), vehicle: water): 100 % of control | T/C (dose: 0.8 mg/kg/injection, schedule: Q01DX005 (ip), vehicle: water): 98 % of control | T/C (dose: 1.6 mg/kg/injection, schedule: Q01DX005 (ip), vehicle: water): 96 % of control | T/C (dose: 5.0 mg/kg/injection, schedule: Q01DX005 (ip), vehicle: distilled water + Tween-80): 92 % of control | T/C (dose: 10.0 mg/kg/injection, schedule: Q01DX005 (ip), vehicle: distilled water + Tween-80): 98 % of control | T/C (dose: 20.0 mg/kg/injection, schedule: Q01DX005 (ip), vehicle: distilled water + Tween-80): 91 % of control | T/C (dose: 80.0 mg/kg/injection, schedule: Q01DX005 (ip), vehicle: distilled water + Tween-80): 86 % of control

COc1ccc2nccc(CO)c2c1
T/C (dose: 50.0 mg/kg/injection, schedule: Q01DX005 (ip), vehicle: Klucel (hydroxypropylcellulose) (HPC)): 102 % of control | T/C (dose: 100.0 mg/kg/injection, schedule: Q01DX005 (ip), vehicle: Klucel (hydroxypropylcellulose) (HPC)): 102 % of control | T/C (dose: 200.0 mg/kg/injection, schedule: Q01DX005 (ip), vehicle: Klucel (hydroxypropylcellulose) (HPC)): 96 % of control
